The text below walks through data of patent US4994448A, “Condensed quinolinium and isoquinolinium derivatives” (Egis Gyogyszergyar, priority 1987, dated 1991).

Each structure is given as a SMILES string. Read-outs that look alike come from different tables or passages of the source.

The subject of one data set is Tetrabenazine ptosis. As to the kind of experiment: Tetrabenazine antagonism on mice (ptosis). The format is in vivo. To be noted: for ED50: Mus musculus, oral, 30 min before Tetrabenazine 50 mg./kg. i.p. The method, then:
The test is carried out by the method of Hoffmeister et al. adapted to mice. For each does groups of 10 animals are used. The mice of the test groups are treated orally with the test compound while the controld animals receive the corresponding vehicle p.o. After 30 minutes a 50 mg./kg. i.p. dose of Tetrabenazine is administered. The animals with closed eye-lids are counted after 30, 60, 90 and 120 minutes, respectively, in each group. The average ptosis is calculated on the basis of all measurements in each group and expressed as the percentage of the deviation (ptosis) from the control group.

The test system of another data set is Reserpin ptosis. As to the kind of experiment: Reserpin ptosis antagonism on mice. To be noted: for ED50: Mus musculus, sc, 1 h, compound given 60 min after reserpine 6 mg./kg. s.c. In kind it is in vivo. The method, then:
The average ptosis is calculated on the basis of all measurements in each group and expressed as the percentage of the deviation (ptosis) from the control group. Groups consisting of 10 mice are used for each does. The animals are treated with a 6 mg./kg. s.c. dose of reserpine, the test compound is administered after 60 minutes. The control animals receive a vehicle. The animals with closed eye-lids are counted in each group after 60 and 120 minutes. The evaluation is carried out as disclosed in the ptosis test No. 3.

In a further data set the test system is writhing (acetic acid). As to the kind of experiment: Analgesic effect, acetic acid writhing test on mice. The format is in vivo. The settings on record: for ED50: Mus musculus, oral, 60 min pre-treatment, 0.75% acetic acid i.p.; for Therapeutical index (writhing test): mouse, in vivo, po. The method, then:
Method: acetic acid "writhing effect" on mice
To mice weighing 20-25 g. a 0.75% acetic acid solution is administered intraperitoneally in a volume of 20 ml./kg. According to the method of Neubold the characteristic writhing reactions are counted for each animal between the 5th and 10th minute and the total writhing number obtained for this 5 minutes' period is expressed as the percentage of the control group. The test compound is administered orally, the test is carried out by using a pre-treatment period of 60 minutes and 10 animals are used for each dose.
On the technique in general: An intraperitoneal irritant provokes the stretching counted in writhing tests.

A short description of the next data set: Acute toxicity on mice. To be noted: mouse, in vivo, po. The method, then: White mice belonging to the CFLP strain (body weight 18-22 g; both male and female) are used, 10 animals for each dose. The test compound is administered orally in a volumen of 20 ml/kg. After treatment the animals are observed for a period of 7 days. The animals are kept in a plastic cage, at room temperature. The animals get tap water and standard mouse fodder ad libitum.

The next data set has as its system Hexobarbital narcosis. Briefly: Hexobarbital narcosis on mice. To be noted: po; for ED50: Mus musculus, read-out: Hexobarbital narcosis ED50; for Therapeutical index (Hexobarbital narcosis): mouse, in vivo. In kind it is in vivo. The method, then:
Groups consisting of 6 mice are used for each dose. The animals are treated orally with the test compound (the control group receives a vehicle), whereby sleeping is induced 1 hour later by administering a 40 mg./kg. i.v. dose of Hexobarbital both to the test and control groups.
Animals which have a sleeping time more than 2.5 times longer than that of the control group are considered to show a positive reaction. ED50 values are calculated from the thus-transofrmed data.

Data set [1] concerns gastrointestinal peristalsis. As to the kind of experiment: Antiperistaltic effect on mice (gastrointestinal peristalsis, carbon suspension, method of Stickney et al.). The format is in vivo, mice (white, male and female). The settings on record: for ED50: Mus musculus, read-out: Antiperistaltic effect ED50; for Therapeutical index (antiperistaltic effect): mouse, in vivo. The method, then: The […] effect is tested according to the method of […] et al. on white male and female mice weighing 20-25 g. […] The groups consist of 10 mice for each dose. The animals of the control group are treated at the same time under identical conditions with a vehicle. Twenty minutes after the administration of the carbon suspension the mice are sacrificed. The total length of the intestines and that of the intestines filled with carbon is measured.

The mark [2] stands for this setting: 7 days observation, Litchfield-Wilcoxon.
The mark [3] stands for this setting: 60 min before 10% carbon suspension.

As for `CN(C)CCC=C1c2ccccc2CCc2ccccc21` [Amitriptylin, reference compound], in the data set on Tetrabenazine ptosis, the ED50 (usually the dose that gives a 50% effect, or the effect in half of the subjects) was determined as 12 mg/kg and the “Therapeutical index TI (Tetrabenazine ptosis antagonism)” value came out at 18.7. For the same compound, in the data set on Reserpin ptosis, it took a dose of 65 mg/kg to reach the 50% effect level (ED50) and the “Therapeutical index TI (Reserpin ptosis antagonism)” value was 3.5.
Regarding `CC1=N[n+]2ccc3ccccc3c2NC1(C)O` (stereo not shown) [Example 1, 2,3-Dimethyl-2-hydroxy-1,2-dihydro-as-triazino[3,2-a]isoquinolinium ethanesulfonate], in the data set on writhing (acetic acid), the ED50 worked out at 60 mg/kg and the “Therapeutical index (writhing test)” value turned out to be 7.3. Further, in “Acute toxicity on mice”, the LD50 (usually the dose expected to kill half of the subjects tested) at 168 h turned out to be 440 mg/kg.
Turning to `c1ccc2c(c1)cc[n+]1ncc(N3CCOCC3)nc21` [Example 2, 2-Morpholino-as-triazino[3,2-a]isoquinolinium ethanesulfonate], the LD50 at 168 h in “Acute toxicity on mice” (setting [2]) was found to be 450 mg/kg.
`OCCNc1cn[n+]2ccc3ccccc3c2n1` [Example 3, 2-(2-Hydroxyethylamino)-as-triazino[3,2-a]isoquinolinium ethanesulfonate]: the LD50 at 168 h in the data set “Acute toxicity on mice” turned out to be 500 mg/kg. For the same compound, in the data set on Tetrabenazine ptosis, the ED50 came out at 50 mg/kg and the “Therapeutical index TI (Tetrabenazine ptosis antagonism)” value came out at 10.0.
In the data set “Acute toxicity on mice” (setting [2]), `Cc1n[n+]2ccc3ccccc3c2nc1NCCCN(C)C` [Example 5, 2-(3-Dimethylaminopropylamino)-3-methyl-as-triazino[3,2-a]isoquinolinium ethanesulfonate] showed a median lethal dose (LD50) at 168 h of 2000 mg/kg.
Turning to `CN(C)CCCNc1nc2c3ccccc3cc[n+]2nc1-c1ccccc1` [Example 6, 2-(3-Dimethylaminopropylamino)-3-phenyl-as-triazino[3,2-a]isoquinolinium ethanesulfonate], in the data set on writhing (acetic acid), the 50% effective dose (ED50) was 120 mg/kg and the “Therapeutical index (writhing test)” value was found to be 7.1. Moreover, the LD50 at 168 h in the data set “Acute toxicity on mice” turned out to be 850 mg/kg. Further, in the data set on Hexobarbital narcosis, the ED50 was found to be 35 mg/kg and the “Therapeutical index (Hexobarbital narcosis)” value was 24.3.
Compound `c1ccc(CNc2nc3c4ccccc4cc[n+]3nc2-c2ccccc2)cc1` [Example 8, 2-Benzylamino-3-phenyl-as-triazino[3,2-a]isoquinolinium ethanesulfonate] yielded an LD50 at 168 h in the data set “Acute toxicity on mice” of 340 mg/kg. For the same compound, in the data set on Reserpin ptosis, it took a dose of 31 mg/kg to reach the 50% effect level (ED50) and the “Therapeutical index TI (Reserpin ptosis antagonism)” value turned out to be 11.0.
Regarding `Cc1n[n+]2ccc3ccccc3c2[nH]c1=O` [Example 9, 3-Methyl-2(1H)-oxo-as-triazino[3,2-a]isoquinolinium-5-ium-ethanesulfonate], in the data set on writhing (acetic acid), the ED50 was found to be 107 mg/kg and the “Therapeutical index (writhing test)” value was determined as 8.4. The same compound displayed an LD50 at 168 h in the data set “Acute toxicity on mice” of 900 mg/kg. In addition, in the data set on Hexobarbital narcosis, the ED50 was 56 mg/kg and the “Therapeutical index (Hexobarbital narcosis)” value stood at 16.1.
As for `O=c1nc2c3ccccc3ccn2nc1-c1ccccc1` [Example 11, 3-Phenyl-as-triazino[3,2-a]isoquinoline-2(5H)-one], the ED50 in data set [1] (setting [3]) was roughly 220 mg/kg. Besides, in data set [1], the “Therapeutical index (antiperistaltic effect)” value is listed as 9.1. Besides, in “Acute toxicity on mice”, the LD50 at 168 h is 2000 mg/kg. For the same compound, in the data set with Reserpin ptosis, the ED50 turned out to be 33 mg/kg and the “Therapeutical index TI (Reserpin ptosis antagonism)” value is 60.6.
In “Acute toxicity on mice” (setting [2]), `OC1C=N[n+]2ccc3ccccc3c2N1` (stereo not shown) [Example 16, 2-Hydroxy-1,2-dihydro-as-triazino[3,2-a]isoquinolinium ethanesulfonate] had an LD50 at 168 h of 650 mg/kg.
Compound `Cc1n[n+]2c3ccccc3ccc2n(C)c1=O` [Example 17, 2,4-Dimethyl-3(4H)-oxo-as-triazino[3,2-a]isoquinoline-11-ium ethanesulfonate] returned an LD50 at 168 h in the data set “Acute toxicity on mice” of 1000 mg/kg. For the same compound, in the data set on Reserpin ptosis, the ED50 was found to be 40 mg/kg and the “Therapeutical index TI (Reserpin ptosis antagonism)” value stood at 25.0.
For `Cn1c(=O)c(-c2ccccc2)n[n+]2c3ccccc3ccc12` [Example 18, 2-Phenyl-4-methyl-3(4H)-oxo-as-triazino[3,2-a]quinoline-11-ium ethanesulfonate], in that order: 2000 mg/kg, 40 mg/kg and 50.0.
In “Acute toxicity on mice” (setting [2]), `Cc1n[n+]2c(ccc3ccccc32)[nH]c1=O` [Example 21, 2-Methyl-3(4H)-oxo-as-triazino[3,2-a]quinoline-11-ium ethanesulfonate] had an LD50 at 168 h of 700 mg/kg.
On the same count and under the same terms, the figure for `Cc1n[n+]2c(ccc3ccccc32)nc1NCCO` [Example 24, 2-Methyl-3(2-hydroxyethylamino)as-triazino[3,2-a]quinolinium ethanesulfonate] is 130 mg/kg; for `OCCNc1nc2ccc3ccccc3[n+]2nc1-c1ccccc1` [Example 25, 3-(2-Hydroxyethylamino)-2-phenyl-as-triazino[3,2-a]quinolinium ethanesulfonate] it is 500 mg/kg; for `O=c1cn[n+]2c(ccc3ccccc32)[nH]1` [Example 26, 3(4H)-Oxo-as-triazino[3,2-a]quinoline-11ium ethanesulfonate] it is 450 mg/kg.
`O=c1[nH]c2ccc3ccccc3[n+]2nc1-c1ccccc1` [Example 27, 2-Phenyl-3(4H)-oxo-as-triazino[3,2-a]quinoline-11ium ethanesulfonate]: in the data set on writhing (acetic acid), the ED50 stood at 23.8 mg/kg and the “Therapeutical index (writhing test)” value amounted to 42.0.
In the data set “Acute toxicity on mice” (setting [2]), `Cc1n[n+]2ccc3ccccc3c2nc1N1CCOCC1` [Example 34, 2-Morpholino-3-methyl-as-triazino[3,2-a]isoquinolinium ethanesulfonate] displayed an LD50 at 168 h of 1200 mg/kg.
`Cc1n[n+]2ccc3ccccc3c2nc1NCCO` [Example 36, 2-(2-Hydroxyethylamino)-3-methyl-as-triazino[3,2-a]isoquinolinium ethanesulfonate]: the LD50 at 168 h in the data set “Acute toxicity on mice” worked out at 1400 mg/kg. In addition, in the data set on Tetrabenazine ptosis, the ED50 was 20 mg/kg and the “Therapeutical index TI (Tetrabenazine ptosis antagonism)” value is recorded as 70.0.
As for `OCCNc1nc2c3ccccc3cc[n+]2nc1-c1ccccc1` [Example 37, 2-(2-Hydroxyethylamino)-3-phenyl-as-triazino[3,2-a]isoquinolinium ethanesulfonate], in “Acute toxicity on mice” (setting [2]), the LD50 at 168 h worked out at 750 mg/kg.
Regarding `Cc1n[n+]2ccc3ccccc3c2nc1N` [Example 38, 2-Amino-3-methyl-as-triazino[3,2-a]isoquinolinium ethanesulfonate], in the data set on writhing (acetic acid), the ED50 amounted to 65 mg/kg and the “Therapeutical index (writhing test)” value is listed as 5.8. In the data set “Acute toxicity on mice”, the 50% lethal dose (LD50) at 168 h worked out at 380 mg/kg. Further, in the data set on Tetrabenazine ptosis, the median effective dose (ED50) was found to be 9.2 mg/kg and the “Therapeutical index TI (Tetrabenazine ptosis antagonism)” value is given as 41.3. In the data set on Hexobarbital narcosis, the ED50 was found to be 17 mg/kg and the “Therapeutical index (Hexobarbital narcosis)” value is recorded as 22.4.
`Nc1nc2c3ccccc3cc[n+]2nc1-c1ccccc1` [Example 39, 2-Amino-3-phenyl-as-triazino[3,2-a]isoquinolinium ethanesulfonate] showed an LD50 at 168 h in “Acute toxicity on mice” (setting [2]) of 500 mg/kg.
As to `Cc1n[n+]2ccc3ccccc3c2nc1NCc1ccccc1` [Example 40, 2-Benzylamino-3-methyl-as-triazino[3,2-a]isoquinolinium ethanesulfonate], the ED50 in data set [1] (setting [3]) is 6.5 mg/kg. Besides, the “Therapeutical index (antiperistaltic effect)” value in data set [1] turned out to be 13.85. This compound also came in with an LD50 at 168 h in the data set “Acute toxicity on mice” of 90 mg/kg.
In the case of `CCCC(C)(COC(N)=O)COC(N)=O` [Meprobamate, reference compound], in the data set with Hexobarbital narcosis, the ED50 was determined as 260 mg/kg and the “Therapeutical index (Hexobarbital narcosis)” value was found to be 4.2.
Turning to `COc1ccc(Cc2nccc3cc(OC)c(OC)cc23)cc1OC` [Papaverin, reference compound], in data set [1], the ED50 was greater than 280 mg/kg. Further, the “inhibition (antiperistaltic effect)” value in data set [1] (printed beside ED50 above 280 mg./kg.) amounted to 36.1%.
In the case of `CC(=O)Nc1ccc(O)cc1` [Paracetamol, reference compound], the ED50 with writhing (acetic acid) was determined as 180 mg/kg.
